Source: patent US5110935A, “New compounds which are active against the tissue forms of malaria and method of preparation” (Ire-Celltarg, S.A., priority 1988, dated 1992)
Where “and” joins values, the source holds several entries; their conditions need not be identical. Equal entries are not always repeated.

Legend:
[1] = Stability in the presence of fetal calf serum; assay type: in vitro ADME; details: for Relative concentration of compound (% of initial concentration) / Relative concentration of primaquine (PQ) from derivative: 0 h
Method: The influence of serum on the stability of primaquine (PQ) and its derivatives is determined by incubating these compounds at 37° C. at a concentration of 100 μg/ml in 95% fetal calf serum (FCS, Flow Laboratories) or human serum and phosphate-buffered saline (0.15 M PBSA, pH 7.2) as a control. All the solutions are sterilized by filtration on a Millipore filter (Millex GV) of porosity 0.20 μm.
At interval of time, 1-ml samples are withdrawn and the serum proteins are then extracted from them by precipitation with acetonitrile. For this purpose, an identical volume of acetonitrile is added to each sample. After vigorous mixing in a Vortex mixer, the samples are left for 1 hour at 4° C. and protected from light and then centrifuged for 5 minutes at 12,000 g. The supernatants are collected and then analyzed by HPLC (20- to 50-μl aliquot) under the standard conditions.
The results for the stability of primaquine and its two derivatives in the presence of fetal calf serum are recorded in Table 1; the results are expressed as a % of the initial concentration (time 0) after extraction.
^a : The compounds are incubated at 37° C. in the presence of
fetal calf serum (95% final) and then analyzed by spectrophotometry after
(§1) ^b : The results represent the relative concentration of primaquine
(PQ) and of derivatives (PQX) in terms of the incubation time, expressed
as a percentage of the initial concentration (time 0) after extraction

human erythrocytes = details: not told
Method: Fresh human blood (A+) on CPDA is washed twice in RPMI medium containing 20 mM glucose at pH 7.4, and then resuspended in the same medium at 37° C. to obtain a 20% suspension of red cells (2×10^9 erythrocytes/ml). To 1 ml of this suspension, 1 ml of a solution of PQ or derivatives at a concentration of 0.250 mM in the same medium at 37° C. is added.
After different incubation times at 37° C., 0.5 ml of sample is withdrawn and then transferred to an Eppendorf tube containing 0.4 ml of silicone oil (Merck, density 1.06 g/ml).
After centrifugation for 30 seconds at 12,000 g, the supernatant and the silicone oil are removed, while the cells in the pellet are lyzed by adding 0.5 ml of water. The quinoline compound present in combination with the cell lysate is then extracted by precipitation of the cell proteins with acetonitrile (0.5 ml) and thereafter analyzed by HPLC under the standard conditions.
The intracellular concentration of quinoline derivative is obtained by subtracting the concentration of compound present in the extracellular medium from the total concentration in the cell lysate. The contaminating extracellular volume is measured using tritiated inulin.

[2] = Hydrolysis in the presence of lysosomal enzymes; assay type: in vitro ADME, rat; details: rat; for metabolised at 1 h: pH 4.5, 1 h; for metabolised at 2 h: pH 4.5, 2 h; for metabolised at 3 h: pH 4.5, 3 h; for metabolised at 6 h: pH 4.5, 6 h; for metabolised at 24 h: pH 4.5, 24 h
Method: (§2) The compounds, at a final concentration of 15 μg/ml, are incubated in 50 mM acetate buffer, pH 4.5, at 37° C. in the presence of 5 mM cysteine and a lysosomal enzyme fraction (0.15 mg protein/ml) purified from rat liver.
(§3) The purified lysosomal fraction is prepared according to the method described by Trouet (1974, Meth. Enzymol., 31, 323-334).
(§4) At intervals of time, corresponding samples are taken from the incubation. The enzyme reaction is stopped by adding 10 μl of 10M HCl per ml of sample. A volume of 20 μl is withdrawn and analyzed directly by HPLC under the standard conditions.
(§5) ^a : The compounds are incubated at pH 4.5 in the presence of
(§6) lysosomal enzymes (0.15 mg protein/ml) and 5 mM cysteine, and then
(§7) analyzed by spectrophotometry after HPLC. The initial purity of the
as §1
(§8) (PQ) and derivatives (PQX) in terms of the incubation time, expressed as
(§9) percentage of the initial concentration (time 0) after extraction.

lysosomal enzymes = experiment: Hydrolysis in the presence of lysosomal enzymes; assay type: in vitro ADME, rat; details: for Relative concentration of primaquine (PQ) from derivative: pH 4.5, 0 h; for Relative concentration of compound (% of initial concentration): pH 4.5, 37° C., 0 h
Method: as §2, §3, §4, §5, §6, §7, §1, §8, §9

[3] = Acute toxicity in mice after a single i.v. administration; assay type: in vivo; details: mouse, in vivo, iv, single i.v., mg PQ diphosphate equivalent/kg; for MTD: weight loss not exceeding 5% during 5 days, read-out: Maximum tolerated dose (MTD)
Method: (§10) The acute toxicity in terms of a single administered dose is determined on female Swiss OF1 mice weighing 22 to 25 g. A series of dilutions of each compound is injected intravenously into groups of 10 mice (0.1 ml per 10 g of weight).
(§11) The lethal dose for 50% of mice (LD50) is determined by linear regression of the logits of the percentage of surviving animals as a function of the logarithm of the dose injected (in mg PQ diphosphate equivalent/kg) (Logit Weighted Transformation, Berkson J., 1953; J. Am. Stat. Assoc. 48, 565-599).
(§12) ^a : The products are administered i.v. to groups of 10 female Swiss
(§13) ^b : Maximum tolerated dose (MTD), defined as the highest dose
(§14) The acute toxicity in terms of a single administered dose is determined under the same conditions and according the protocol of Example 3.

female Swiss OF1 mice = experiment: as above; assay type: in vivo; details: for Fold less toxic than PQ: mice, i.v.; for LD50 / Maximum tolerated dose (MTD): single i.v., mg PQ diphosphate equivalent/kg; for Maximum tolerated dose (MTD): weight loss not exceeding 5% during 5 days
Method: as §10, §11, §12, §13, §14

human red cells = experiment: Methemoglobin production in human red cells; assay type: cell-based; details: for Methemoglobin (% of total hemoglobin concentration): 1 hour, 37° C.
Method: (§15) Two important toxic effects of PQ were assessed on the two derivatives: the hemolytic effect and the conversion of hemoglobin to methemoglobin.
(§16) A+ blood is washed twice in 0.15M phosphatebuffered saline at pH 7.4 containing 20 mM glucose (GPBS), and then resuspended at a concentration of 50% in the same buffer. To this suspension, an equal volume of compound dissolved in GPBS at different concentrations (test), or of GPBS (control) is added. The final hematocrit of the suspension is 25%. After 60 minutes' incubation at 37° C., the concentration of hemoglobin and methemoglobin is determined on the total suspension, and the concentration of hemoglobin present in the supernatant after centrifugation (extracellular hemoglobin) is determined, by the cyanmethemoglobin and benzidine methods (Fairbanks V.F., 1976, in "Fundamentals of Clinical Chemistry, M.W. Tietz Editors, Saunders").

Plasmodium berghei = experiment: Therapeutic index in mice; assay type: in vivo, P. berghei; details: i.v.; for Therapeutic index, fold higher than that of PQ: mice
Description: The therapeutic index is defined as the ratio of the toxicity, expressed as LD50, to the therapeutic activity, expressed as CPD50, in mice.
^b : The therapeutic index (TI) is the ratio of LD50 to […]

[4] = Hemolytic effect on human red cells; assay type: cell-based; details: human, red cells, pH 7.4, 1 hour, 37° C., read-out: Hemolysis (% of total hemoglobin concentration); for hemolysis at 1 h, 1000 µM: 1 mM; for hemolysis at 1 h, 5000 µM: 5 mM
Method: as §15, §16

[5] = bovine, fetal calf serum 95%, 37° C., read-out: Relative concentration of compound (% of initial concentration)
[6] = bovine, fetal calf serum 95%, 37° C., read-out: Relative concentration of primaquine (PQ) from derivative
[7] = liver lysosomal enzyme fraction, read-out: Relative concentration of primaquine (PQ) from derivative
[8] = liver lysosomal enzymes, pH 4.5, 37° C., read-out: Relative concentration of compound (% of initial concentration)

COc1cc(NC(C)CCCNC(=O)CC[C@H](N)C(=O)O)c2ncccc2c1 (stereo partly drawn) [gGLU-PQ, N-(γ-L-glutamyl)primaquine]
remaining at 1 h [1, 5]: 96%
metabolised at 1 h [1, 6]: 3%
remaining at 2 h [1, 5]: 95%
metabolised at 2 h [1, 6]: 4%
remaining at 3 h [1, 5]: 94%
metabolised at 3 h [1, 6]: 4%
remaining at 6 h [1, 5]: 83%
metabolised at 6 h [1, 6]: 4%
remaining at 24 h [1, 5]: 51%
metabolised at 24 h [1, 6]: 4%
Duration of stability in serum ([1]; fetal calf serum): at least 3 hours
Relative concentration of compound (% of initial concentration) ([1]; fetal calf serum 95%, 37° C.): 98 (1) %
Relative concentration of primaquine (PQ) from derivative ([1]; fetal calf serum 95%, 37° C.): 2 (1) %
Stability in the presence of serum ([1]; 37° C.): a gradual decrease in the relative concentration is observed after 6 hours' incubation
Accumulation in erythrocytes (human erythrocytes): not accumulated in erythrocytes
metabolised at 1 h [2, 7]: 0%
metabolised at 2 h [2, 7]: 0%
metabolised at 3 h [2, 7]: 0%
metabolised at 6 h [2, 7]: 0%
metabolised at 24 h [2, 7]: 0%
remaining at 1 h [2, 8]: 104%
remaining at 2 h [2, 8]: 95%
remaining at 3 h [2, 8]: 98%
remaining at 6 h [2, 8]: 101%
remaining at 24 h [2, 8]: 105%
Relative concentration of primaquine (PQ) from derivative (lysosomal enzymes): 0%
Relative concentration of compound (% of initial concentration) (lysosomal enzymes): 100%
LD50 [3]: 169 mg/kg
MTD [3]: 117 mg/kg
Fold less toxic than PQ (female Swiss OF1 mice): at least 5 -fold
LD50 (female Swiss OF1 mice): 169 (9) mg/kg
Maximum tolerated dose (MTD) (female Swiss OF1 mice): 117 (13) mg/kg
Methemoglobin (% of total hemoglobin concentration) (human red cells; 1 mM): 1.4 (0.0) %
Methemoglobin (% of total hemoglobin concentration) (human red cells; 5 mM): 5.3 (0.0) %
Therapeutic index, fold higher than that of PQ (Plasmodium berghei): at least 11 -fold
Therapeutic index (TI) (Plasmodium berghei; ratio of LD50 to CPD50, mice): > 19 and 19.4
hemolysis at 1 h, 1000 µM [4]: 0.27%
hemolysis at 1 h, 5000 µM [4]: 0.58%

COc1cc(NC(C)CCCNC(=O)[C@@H]2CCC(=O)N2)c2ncccc2c1 (stereo partly drawn) [pGLU-PQ, N-(α-L-pyroglutamyl)primaquine]
remaining at 1 h [1, 5]: 100%
metabolised at 1 h [1, 6]: 0%
remaining at 2 h [1, 5]: 101%
metabolised at 2 h [1, 6]: 0%
remaining at 3 h [1, 5]: 105%
metabolised at 3 h [1, 6]: 0%
remaining at 6 h [1, 5]: 103%
metabolised at 6 h [1, 6]: 0%
remaining at 24 h [1, 5]: 107%
metabolised at 24 h [1, 6]: 0%
remaining at 48 h ([1]; bovine, fetal calf serum 95%, 37° C., 48 h, read-out: Relative concentration of compound (% of initial concentration)): 87%
metabolised at 48 h ([1]; bovine, fetal calf serum 95%, 37° C., 48 h, read-out: Relative concentration of primaquine (PQ) from derivative): 0%
Relative concentration of compound (% of initial concentration) ([1]; fetal calf serum 95%, 37° C.): 100%
Relative concentration of primaquine (PQ) from derivative ([1]; fetal calf serum 95%, 37° C.): 0%
Stability in the presence of serum ([1]; 37° C.): undergoes no modification
Time to maximum level in erythrocytes (human erythrocytes): 60 min
metabolised at 1 h [2, 7]: 0%
metabolised at 2 h [2, 7]: 0%
metabolised at 3 h [2, 7]: 0%
metabolised at 6 h [2, 7]: 0%
metabolised at 24 h [2, 7]: 0%
metabolised at 48 h ([2]; liver lysosomal enzyme fraction, pH 4.5, 48 h, read-out: Relative concentration of primaquine (PQ) from derivative): 0%
remaining at 1 h [2, 8]: 94%
remaining at 2 h [2, 8]: 97%
remaining at 3 h [2, 8]: 97%
remaining at 6 h [2, 8]: 96%
remaining at 24 h [2, 8]: 76%
remaining at 48 h ([2]; liver lysosomal enzymes, pH 4.5, 37° C., 48 h, read-out: Relative concentration of compound (% of initial concentration)): 47%
Onset of gradual decrease in relative concentration (lysosomal enzymes): > 6 h
Relative concentration of primaquine (PQ) from derivative (lysosomal enzymes): 1%
Relative concentration of compound (% of initial concentration) (lysosomal enzymes): 99%
LD50 [3]: 159 mg/kg
MTD [3]: 126 mg/kg
Fold less toxic than PQ (female Swiss OF1 mice): at least 5 -fold
LD50 (female Swiss OF1 mice): 159 (6) mg/kg
Maximum tolerated dose (MTD) (female Swiss OF1 mice): 126 (13) mg/kg
Methemoglobin (% of total hemoglobin concentration) (human red cells; 1 mM): 0.9 (0.1) %
Methemoglobin (% of total hemoglobin concentration) (human red cells; 2 mM): 2.2 (0.9) %
Methemoglobin (% of total hemoglobin concentration) (human red cells; 5 mM): 3.9 (0.0) %
Methemoglobin (% of total hemoglobin concentration) (human red cells; 10 mM): 6.0 (0.2) %
Oxidation of hemoglobin, times less than PQ (human red cells; same concentration as PQ (10 mM)): 1.5 times less
Therapeutic index, fold higher than that of PQ (Plasmodium berghei): 9 -fold
hemolysis at 1 h, 1000 µM [4]: 0.32%
hemolysis at 1 h, 2000 µM ([4]; 2 mM): 0.24%
hemolysis at 1 h, 5000 µM [4]: 0.44%
hemolysis at 1 h, 10000 µM ([4]; 10 mM): 2.34%
